Three compounds from ChEMBL document CHEMBL3108726, “Sorbicatechols A and B, antiviral sorbicillinoids from the marine-derived fungus Penicillium chrysogenum PJX-17” (J Nat Prod, 2014) can be followed below.

In this test the test system is Influenza A virus. As to the kind of experiment: Antiviral activity against Influenza A virus (A/Puerto Rico/8/34(H1N1)) infected in MDCK cells assessed as inhibition of virus-induced cytopathic effect after 48 hrs by crystal violet staining technique. It is filed as functional, organism-based. To be noted: A/Puerto Rico/8/1934(H1N1). (Cytopathic effects are the visible damage that an infection or toxin causes in cultured cells.)
As usually defined, the IC50 is the concentration needed to halve the response being measured. As for `C/C=C/C=C/C(O)=C1/C(=O)[C@]2(C)C(=O)[C@@](C)(O)[C@H]1C[C@H]2c1ccc(O)c(OC)c1`, the IC50 came out at 113 µM.
For `NC(=O)c1ncn([C@@H]2O[C@H](CO)[C@@H](O)[C@H]2O)n1` [RIBAVIRIN], the concentration for half-maximal inhibition (IC50) was 84 µM.
For `C/C=C/C=C/C(O)=C1/C(=O)[C@]2(C)C(=O)[C@@](C)(O)[C@H]1C[C@@H]2c1ccc(O)c(OC)c1`, the IC50 was found to be 85 µM.
